Test results published in BigSolDB 2.1.

CC(=O)Oc1cc(C)c(OC(C)=O)c2ccccc12
solubility (mole fraction)
Details	283.1 K	288.1 K	293.1 K	298.1 K	303.1 K	308.1 K	313.1 K	318.1 K	323.1 K
in cyclohexanol	0.00261	0.00403	0.00595	0.0082	0.0105	0.0138	0.0182	0.0245	0.033
in ethanol	0.00323	0.00417	0.00532	0.00656	0.00839	0.0108	0.014	0.0184	0.0242
in ethyl acetate	0.0691	0.0795	0.0907	0.103	0.118	0.135	0.156	0.179	0.204
in isobutanol	0.00212	0.0029	0.00384	0.00526	0.00708	0.00958	0.0131	0.018	0.0249
in isopentanol	0.00241	0.00329	0.00422	0.0056	0.00766	0.0102	0.0137	0.0183	0.025
in isopropanol	0.00185	0.0025	0.00334	0.00444	0.00605	0.0081	0.011	0.0152	0.0209
in methanol	0.00461	0.0057	0.0071	0.00877	0.0112	0.0139	0.0173	0.0221	0.032
in methyl acetate	0.0839	0.096	0.109	0.123	0.14	0.159	0.178	0.198	0.22
in n-butanol	0.00257	0.00352	0.00459	0.00595	0.00794	0.0104	0.0139	0.0185	0.0253
in n-butyl acetate	0.0497	0.0573	0.0665	0.077	0.0897	0.105	0.122	0.142	0.165
in n-pentanol	0.00266	0.00374	0.00498	0.00667	0.0092	0.0122	0.0164	0.0219	0.0288
in n-pentyl acetate	0.0429	0.0501	0.0592	0.0681	0.0791	0.093	0.108	0.128	0.15
in n-propanol	0.00265	0.00345	0.00473	0.00629	0.00799	0.0106	0.014	0.0186	0.0252
in n-propyl acetate	0.0592	0.0673	0.0771	0.0895	0.104	0.12	0.138	0.159	0.183
